Measurements taken from patent US20090318389A1, “AGONISTS OF THE SPHINGOSINE-1 PHOSPHATE RECEPTOR” (PRAECIS PHARMACEUTICALS INCORPORATED, priority 2006, published 2009).
pEC50, pIC50: −log10 of the molar value.

What was measured:
[1] = biological target: T1, S1P-1 receptor (Homo sapiens, UniProt P21453); test: [33P]sphingosine 1-phosphate binding assay, membranes of transfected HEK 293 T cells; details: for pIC50: binding, 2.5 pM [33P]S1P, 60 minutes, room temperature; for IC50/IC50 (S1P-3/S1P-1): selectivity for S1P-1 over S1P-3
T1 construct: expressed in transfected cells; host or cells: HEK 293 T cells (crude membranes)
Description: (§1) The IC50 of a compound is determined using the [^33P]sphingosine 1-phosphate binding assay, as described in Davis, M. D. et al., Sphingosine 1-Phosphate Analogs as Receptor Antagonists. J. Biol. Chem. (2005) 280:9833-9841, the entire contents of which are incorporated herein by this reference.
(§2) The ability of several of the compounds described herein to bind to the S1P-1 or S1P-3 receptor was tested as follows.
(§3) For the membrane preparation, plasmid DNA was transfected into HEK 293 T cells using the FuGENE 6 transfection protocol Briefly, subconfluent monolayers of HEK 293 T cells were transfected with the DNA mixture containing FuGENE 6 (using a 1:3 ratio). The dishes containing the cells were then placed in a tissue culture incubator (5% CO2, 37° C.). The cells were harvested 48 hours after addition of the DNA by scraping in HME buffer (in mM: 20 HEPES, 5 MgCl2, 1 EDTA, pH 7.4, 1 mM PMSF) containing 10% sucrose on ice, and disrupted using aDounce homogenizer. After centrifugation at 800×g, the supernatant was diluted with HME without sucrose and centrifuged at 17,000×g for 1 hour. This crude membrane pellet was resuspended in HME with sucrose, aliquoted, and snap-frozen by immersion in liquid nitrogen. The membranes were stored at −70° C. Protein concentration was determined spectroscopically by Bradford protein assay.
(§4) For the binding assay, [^33P]sphingosine 1-phosphate (obtained from American Radiolabeled Chemicals, Inc) was added to membranes in 200 μL in 96-well plates with assay concentrations of 2.5 pM [^33P]sphingosine 1-phosphate, 4 mg/mL BSA, 50 mM HEPES, pH 7.5, 100 mM NaCl, 5 mM MgCl2, and 5 μg of protein. Binding was performed for 60 minutes at room temperature with gentle mixing and terminated by collecting the membranes onto GF/B filter plates. After drying the filter plates for 10 minutes, 50 μL of Microscint 40 was added to each well, and filter-bound radionuclide was measured on a Packard Top Count. Nonspecific binding was defined as the amount of radioactivity remaining in the presence of excess of unlabeled S1P.

[2] = biological target: T2, S1P-3 receptor (Homo sapiens, UniProt Q99500); test: as above; details: 2.5 pM [33P]S1P, 60 minutes, room temperature
T2 construct: expressed in transfected cells; host or cells: HEK 293 T cells (crude membranes)
Description: as §1, §2, §3, §4

[3] = biological target: T1, S1P-1 receptor; test: 35S-GTPγS binding assay (EC50, agonism); format: biochemical; details: 35S-GTPγS binding assay as described in WO 03/061567
Description: The terms “agonist” or “S1P-1 receptor agonist” as used herein include the compounds described herein which bind to and/or agonize the S1P-1 receptor. The EC50 of a compound is determined using the ^35S-GTPγS binding assay, as described in WO 03/061567, the entire contents of which are incorporated herein by reference.

T1 sequence (P21453 whole entry): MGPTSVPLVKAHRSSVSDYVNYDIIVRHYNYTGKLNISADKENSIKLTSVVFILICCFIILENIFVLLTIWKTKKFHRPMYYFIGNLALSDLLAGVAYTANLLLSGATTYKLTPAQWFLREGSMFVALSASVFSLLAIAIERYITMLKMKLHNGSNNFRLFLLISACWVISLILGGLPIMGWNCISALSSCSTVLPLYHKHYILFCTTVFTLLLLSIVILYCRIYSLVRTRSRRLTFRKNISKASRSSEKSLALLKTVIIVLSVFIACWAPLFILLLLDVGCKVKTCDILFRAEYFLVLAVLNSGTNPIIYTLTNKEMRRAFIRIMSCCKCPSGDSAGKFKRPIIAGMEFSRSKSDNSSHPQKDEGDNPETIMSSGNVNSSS
T2 sequence (Q99500 whole entry): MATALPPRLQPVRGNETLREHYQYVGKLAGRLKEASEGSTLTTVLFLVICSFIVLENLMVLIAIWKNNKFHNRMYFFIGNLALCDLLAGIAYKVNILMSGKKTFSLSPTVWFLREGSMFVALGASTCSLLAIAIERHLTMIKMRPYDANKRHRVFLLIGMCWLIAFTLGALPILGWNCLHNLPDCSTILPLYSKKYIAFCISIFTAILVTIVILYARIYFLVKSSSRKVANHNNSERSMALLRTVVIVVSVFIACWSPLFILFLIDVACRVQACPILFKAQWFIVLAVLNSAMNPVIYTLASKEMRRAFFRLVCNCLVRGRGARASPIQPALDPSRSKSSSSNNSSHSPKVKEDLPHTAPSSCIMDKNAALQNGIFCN

Row | SMILES | pIC50 [1] | pIC50 [2] | pEC50 [3] | IC50/IC50 (S1P-3/S1P-1) [1]
1 | C[C@](N)(COP(=O)(O)O)c1ncc(-c2ccc(Sc3cccc(OCc4ccccc4)c3)c(C(F)(F)F)c2)[nH]1 | 7.00 to 12.00 | 5.00 to 6.00 |  | +++ (great receptor selectivity (>1,000 fold))
2 | C[C@](N)(COP(=O)(O)O)c1nnc(-c2ccc(Sc3cccc(OCc4ccccc4)c3)cc2Cl)s1 | 7.00 to 12.00 | 6.00 to 7.00 |  | ++ (good receptor selectivity (>100-1,000 fold))
3 | C[C@](N)(COP(=O)(O)O)c1nnc(-c2ccc(Sc3cccc(O)c3)cc2Cl)s1 | 6.00 to 7.00 | < 5.00 |  | 

The next lines start with results.

Row | pIC50 [1] | pIC50 [2] | pEC50 [3] | SMILES | IC50/IC50 (S1P-3/S1P-1) [1]
4 | 7.00 to 12.00 | 6.00 to 7.00 |  | C[C@](N)(COP(=O)(O)O)c1ncc(-c2ccc(Sc3cccc(OCc4ccccc4)c3)cc2Cl)[nH]1 | +++ (great receptor selectivity (>1,000 fold))
5 | 7.00 to 12.00 | < 5.00 |  | C[C@](N)(COP(=O)(O)O)c1nnc(-c2ccc(Sc3cccc(OCc4ccccc4)c3)c(C(F)(F)F)c2)s1 | 
6 |  |  | 8.16 | C[C@](N)(COP(=O)(O)O)C(=O)Nc1ccc(Sc2cccc(OCc3ccccc3)c2)cc1Cl [compound 7a] | 
